Reference: patent publication US11738099B2, “Molecular probes and methods of use” (CASE WESTERN RESERVE UNIVERSITY, priority 2014, dated 2023)
Where a SMILES comes first, the peptide text is derived from it. The star is where a group is joined. X1 = O=C(O)CN1CCN(CC(=O)O)CCN(CC(O)Cn2cc(CCCC(=O)*)nn2)CCN(CC(=O)O)CC1; PEG2 = NCCOCCOCCC(=O)O

What was measured:
[1] = Relaxivity measurement at 3T; type: physicochemical
Protocol: The design of the EDB-FN targeted MRI agent was based on a modular system that forms small molecular contrast agent in conjugation with l-ZD2. Compound 1 in FIG. 7A was prepared by adding a short PEG linker, followed by reacting with 5-hexynoic acid, resulting in an alkyne group for conjugation through click chemistry. The final product from reaction of compound 1 and 2 was purified with HPLC and characterized with Maldi-Tof spectrum.

[2] = Relaxivity at 1.5T in water, 37° C.; type: physicochemical
Protocol: Relaxivity is an important parameter for an MR contrast agent. It reflects how the relaxation rate of the surrounding water proton changes as a function of concentration, and it is directly associated with the agent's contrast enhancing capability during imaging. The relaxivity of the 4 contrast agents was tested at 37° C. in water and compared to Gd(HP-DO3A), Gd-DOTA and ZD2-Gd(HP-DO3A) (FIG. 26). […] Compared to Gd(HP-DO3A), Gd-DOTA, the size increase of the targeted contrast agents due to the peptides and PEG spacer could result in an increase of τR,^[42, 43] thus leading to higher relaxivities.

[3] = tested on: PC3 prostate tumor xenografts; assay: In vivo T1-weighted MRI at 7T, PC3 tumors; design: species or system mouse
Protocol: All MRI experiments were performed on a horizontal 7T Bruker scanner (Bruker Biospin Co., Billerica, Mass.). Imaging experiments were performed when the tumor size reached 5-8 mm in diameter. ZD2-Gd(HP-DO3A) was administered intravenously at the dose of 0.1 mmol/kg after acquiring pre-contrast images. Post-contrast images were obtained at 10 min interval up to 30 min. The axial slices of mouse at the tumor location were acquired using T1-weighted spin echo sequence with the following parameters: field of view (FOV): 3 cm; slice thickness: 1.2 mm; interslice distance: 1.2 mm; TR: 500 ms, TE: 8.1 ms; flip angle: 90°; average: 2; matrix size: 128×128. Contrast-to-noise ratio (CNR) at each time point was calculated by subtraction of the average signal intensity in the tumor and muscle, divided by the standard deviation of image noise. ProHance® (gadoteridol) was used as a control in the imaging experiments.

[4] = In vivo transmetallation and urinary excretion; design: species or system mouse; conditions: 0.1 mmol-Gd/kg
Protocol: Balb/c mice (Charles River Laboratories, Wilmington, Mass., USA) were randomly divided into groups of ZD2-Gd(HP-DO3A) and ProHance (n=5) and placed in the metabolism cages, 48 hours prior to injection. […] Urine samples were collected at 12 h pre-injection, and then 8, 24, 48, and 72 h post-injection from the metabolic box. The collected urine samples were centrifuged at 4,000 rpm for 15 min. The concentration of Gd(III), Zn(II), Cu(H), and Ca(II) in the supernatant of the urine samples was determined by ICP-OES after appropriate dilutions.

[5] = tested on: PC3 prostate tumor xenografts; assay: T1-weighted MRI at 1 Tesla, PC3 tumors (Example 3); type: in vivo, mouse
Protocol: Male athymic nude mice were purchased from Case Comprehensive Cancer Center (Cleveland, Ohio, USA) and housed in the Animal Core Facility at Case Western Reserve University. All animal experiments were performed in accordance with the animal protocol approved by the CWRU Institutional Animal Care and Use Committee. Athymic nude male mice were subcutaneously injected with 100 μL cell suspension (4×10^7 cells/mL) in matrigel matrix (Corning Bioscience, Corning, N.Y.) to initiate tumors. Mice with tumors of 5-8 mm in diameter were used for imaging studies.
MR images of tumor bearing mice were acquired on an Aspect M3 small animal MRI scanner (1 Tesla). Mice were placed on a holder with the temperature maintained at 37° C., with isoflurane/oxygen mixture supplied to the mice through a nose cone. A thin catheter filled with PBS was connected to a tail vein of the mice. After mice were placed in the coil, a pilot scan was performed to adjust mice to the proper location in the coil. An axial T1 weighted sequence (TR=500 ms; TE=9 ms; Flip angle=90°; Field of view=3 cm×3 cm; Matrix size=128×128×8; slice thickness=2 mm; interslice distance=1 mm) was then used to acquire the images of the tumors before and 10 min, 20 min and 30 min after contrast injection. Images were exported into DICOM data, which were then processed and analyzed using Matlab (Natick, Mass., USA). The contrast to-noise ratio of tumors in the images were calculated as the difference between tumor mean intensity minus muscle mean intensity, divided by the noise.

[6] = In vitro transmetallation in serum; type: in vitro ADME, human; conditions: blood plasma containing Cu2+, Ca2+, Zn2+; vs MultiHance and OmniScan
Protocol: […] The plasma mixtures were transferred to CF-10 centrifugal filters (molecular weight cut-off 10 KDa) and centrifuged at 4,000 rpm and 25° C. for 150 min. During centrifugation, the solution in the upper reservoir was agitated using a pipette every 20 min for the plasma mixtures. The content of metal ions in both the upper reservoir and the filtrates was determined by ICP-OES after appropriate dilution. The degree of transmetallation of the contrast agents with Zn(II) or Cu(II) ions in the plasma was evaluated using the percentage of Zn(II) or Cu(II) ions filtered through the membrane, calculated as Zn(Cu) %=(concentration of Zn(II) or Cu(II) in the filtrates)/(total Zn(II) or Cu(II) concentration before centrifugal filtration)×100. Human serum was used a control.

[7] = tested on: PC-3 human prostate cancer xenograft; assay: MRI of PC-3 xenograft (Example 2); type: in vivo, mouse; conditions: 0.1 mmol-Gd/kg intravenous
Excerpt: The same contrast agent also works for prostate cancer imaging. We then tested the effectiveness of targeting EDB-FN with the contrast agent for prostate cancer MRI in male nude mice bearing primary PC-3 human prostate cancer xenograft.

[8] = r1 relaxivity by T1 mapping in PC3 tumor lysates; type: physicochemical
[9] = mouse, in vivo
Protocol: PC3 tumor-bearing athymic nude mice (sixteen mice) were randomly divided into 4 groups (four mice each group). […] The animals were sacrificed at 2 and 7 days after injection. The blood and tissue samples, including brain, femur, heart, lung, liver, muscle, spleen, and kidney, were collected and weighed. The tissue samples were then cut into small pieces and mixed with ultra-pure nitric acid (1.0 mL, 70%, EMD, Gibbstown, N.J.). The tissue samples were liquefied within 2 weeks and the solution was transferred to a centrifuge tube and centrifuged at 14,000 rpm for 15 min. The supernatant (0.2 mL) was diluted with 9.8 mL deionized water and further centrifuged at 14,000 rpm for 15 min. The Gd(III) concentration in the final supernatant was measured by ICP-OES. […] The Gd content in different organ/tissues was calculated as the percentage of injected dose per gram of organ/tissues (% Dose/g).

CC(C)[C@H](NC(=O)[C@@H](NC(=O)CCOCCOCCNC(=O)CCCc1cn(CC(O)CN2CCN(CC(=O)O)CCN(CC(=O)O)CCN(CC(=O)O)CC2)nn1)[C@@H](C)O)C(=O)N[C@@H](CCCNC(=N)N)C(=O)N[C@H](C(=O)N[C@@H](CO)C(=O)N[C@@H](C)C(=O)N[C@@H](CC(=O)O)C(=O)O)[C@@H](C)O (some centres unmarked) [ZD2-Gd(HP-DO3A)] ({X1-PEG2}-TVRTSAD-OH)
relaxivities (T1 and T2) [1]: relatively high relaxivities
r1 [2]: 5.4 mM⁻¹ s⁻¹
signal enhancement in PC3 tumors ([3]; 0.1 mmol/kg i.v., up to 30 min, 7T): Strong signal enhancement
signal enhancement and CNR in PC3 tumors with co-injection of free ZD2 peptide ([3]; 0.1 mmol/kg with 0.5 mmol/kg free ZD2 peptide): significantly reduced
CNR in PC3 tumors ([3]; 10-30 min post-injection): 12-25
increase of CNR in PC3 tumors ([3]; 10 min after injection): over two-fold increase
increase of CNR in PC3 tumors ([3]; 30 min): over five-fold increase
CNR in PC3 tumors ([3]; 30 min (peak), n=5, SEM): 23.7±1.68
contrast enhancement in other organs and normal tissues ([3]; mouse, in vivo): did not produce significant contrast enhancement
urine concentration of endogenous metal ions post-injection vs pre-injection [4]: without any significant increase
dose excreted ([4]; mouse, in vivo, iv, within 24 hours post-injection, read-out: injected dose excreted in urine): > 95%
signal enhancement in PC3 tumors ([5]; 0.1 mmol/kg i.v., up to 30 min, 1 Tesla): Strong signal enhancement
increase of contrast-to-noise ratio (CNR) in PC3 tumors ([5]; 10 min after injection): over two-fold increase
stability against transmetallation [6]: same high stability as ProHance
tumor contrast enhancement [7]: robust tumor enhancement for at least 30 min
r1 relaxivity [8]: 4.12 mM⁻¹ s⁻¹
Gd(III) concentration in most of the organs, including the brain, heart, and skin [9]: below the detection limit
